From patent US20020169101A1, “Treatment of sexual dysfunction” (priority 1999, published 2002)

How the values were obtained:
[1] = Plasma sexual hormone levels in ovariectomised female rats (radioimmunoassay); assay type: in vivo, rat
Protocol: Ovariectomised adult female Sprague Dawley rats (180-200 g) were housed in groups of 6 in a reversed lighting system of 12 h light:dark (lights off 7.00-19.00 h). They were used for the experiments at least two weeks after ovariectomy. Forty eight hours before tests, the animals were primed with oestradiol benzoate (5 μg/0.1 ml in corn oil, s.c.). Progesterone (0.5 mg/0.1 ml, in corn oil, s.c.) was administered 4 h before blood collection, as a positive control. Compound (1) (3-10 mg/kg, i.p.) was administered in 50% 2-hydroxypropyl-β-cyclodextrin, 1 h prior to blood collection. Blood was collected from the trunk, after decapitation. It was immediately centrifuged (3500 r.p.m., 4° C., 5 min) and the plasmas frozen until assayed for hormonal content, using commercially available radioimmunoassay kits (^125I-labelled hormones) for oestradiol, progesterone, LH, FSH and prolactin.

[2] = molecular target: T1, human GRP receptor (BB2) (Homo sapiens, UniProt P30550); experiment: BB2 binding assay ([125I][Tyr4]bombesin displacement, CHO-K1 membranes); conditions: read-out: hBB2 Ki
T1 construct: expressed in transfected cells; membranes prepared from the cells
Summary of the method: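 Competition against <0.1 nM [125I][Tyr4]bombesin, 60 min for the NMB receptor and 90 min for the GRP receptor, using homogenised membranes of human-receptor-expressing CHO-K1 cells in pH 7.4 Tris buffer. Bound label was filtered and gamma-counted, with 1 μM bombesin as nonspecific. Ki values came from IC50 via Cheng-Prusoff.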

[3] = tested on: penile intracavernosal pressure; experiment: Pelvic nerve-stimulated penile intracavernosal pressure in the anaesthetised rabbit model of erection; assay type: in vivo; conditions: Compound 3 (10 mg/kg sc) concomitant with a selective PDE5 inhibitor (1 mg/kg iv), vs Compound 3 alone, anaesthetised rabbit (FIG. 26)
Protocol: Male New Zealand rabbits (˜2.5kg) were pre-medicated with a combination of Medetomidine (Domitor®) 0.5 ml/kg i.m., and Ketamine (Vetalar®)) 0.25 ml/kg i.m. whilst maintaining oxygen intake via a face mask. The rabbits were tracheotomised using a PorteXTM uncuffed endotracheal tube 3 ID., connected to ventilator and maintained at a ventilation rate of 30-40 breaths per minute, with an approximate tidal volume of 18-20 ml, and a maximum airway pressure of 10 cm H2O. Anaesthesia was then switched to Isoflurane and ventilation continued with O2 at 21/min. The right marginal ear vein was cannulated using a 23G or 24G catheter, and Lactated Ringer solution perfused at 0.5 ml/min. The rabbit was maintained at 3% Isoflurane during invasive surgery, dropping to 2% for maintenance anaesthesia. The left jugular vein was exposed, isolated and then cannulated with a PVC catheter (17G) for the infusion of drugs and compounds.
The left groin area of the rabbit was shaved and a vertical incision was made approximately 5 cm in length along the thigh. […] Systolic and diastolic pressures were measured, and the mean arterial pressure calculated using the formula (diastolic x2+systolic)÷3. Heart rate was measured via the pulse oxymeter and Po-ne-mah data acquisition software system (Ponemah Physiology Platform, Gould Instrument Systems Inc). […]

T1 sequence (P30550 whole entry): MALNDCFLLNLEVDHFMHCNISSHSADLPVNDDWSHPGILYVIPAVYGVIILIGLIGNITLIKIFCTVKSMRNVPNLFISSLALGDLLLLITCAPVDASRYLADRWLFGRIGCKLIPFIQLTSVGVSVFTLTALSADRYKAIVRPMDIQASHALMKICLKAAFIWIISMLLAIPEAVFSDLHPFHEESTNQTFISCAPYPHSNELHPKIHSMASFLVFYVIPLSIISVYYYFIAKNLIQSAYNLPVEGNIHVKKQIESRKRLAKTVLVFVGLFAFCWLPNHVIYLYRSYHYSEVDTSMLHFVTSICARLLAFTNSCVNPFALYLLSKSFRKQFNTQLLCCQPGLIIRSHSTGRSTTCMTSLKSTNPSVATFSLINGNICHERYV

SMILES: COc1ccc(C2(CNC(=O)[C@](C)(Cc3c[nH]c4ccccc34)NC(=O)Nc3ccc([N+](=O)[O-])cc3)CCCCC2)nc1 [Compound (1), (S) 3-(1H-Indol-3-yl)-N-[1-(5-methoxy-pyridin-2-yl)-cyclohexyl-methyl]-2-methyl-2-[3-(4-nitro-phenyl)-ureido]-propionamide]
- plasma levels of progesterone ([1]; Compound (1) 3-10 mg/kg i.p. 1 h, progesterone 0.5 mg s.c. 4 h before blood collection, vs vehicle (FIG. 6)): no effect
- plasma levels of LH ([1]; Compound (1) 3-10 mg/kg i.p. 1 h, progesterone 0.5 mg s.c. 4 h before blood collection, vs vehicle (FIG. 9)): no effect
- plasma levels of oestradiol ([1]; Compound (1) 3-10 mg/kg i.p. 1 h before blood collection (FIG. 7)): no effect
- plasma levels of prolactin ([1]; Compound (1) 3-10 mg/kg i.p. 1 h before blood collection (FIG. 8)): no effect
- plasma levels of FSH ([1]; Compound (1) 3-10 mg/kg i.p. 1 h before blood collection (FIG. 10)): no effect

SMILES: C[C@@](Cc1c[nH]c2ccccc12)(NC(=O)Nc1ccc([N+](=O)[O-])cc1)C(=O)NCC1(c2ccc(N)cc2)CCCCC1 [Compound 3, (2S)-N-{[1-(4-aminophenyl)cyclohexyl]methyl}-3-(1H-indol-3-yl)-2-methyl-2-{[(4-nitroanilino)-carbonyl]amino}propanamide]
- Ki [2]: 0.046 µM
- pelvic nerve-stimulated intracavernosal pressure (ICP) [3]: marked enhancement of the ICP
- pelvic nerve-stimulated intracavernosal pressure (ICP) ([3]; listed as compound 3): marked enhancement of intracavernosal pressure
